From patent US20210275657A1, “NEOANTIGENS AND USES THEREOF” (BioNTech US Inc., priority 2018, published 2021)
Like-named read-outs stand apart in the source and are kept apart here. Where a SMILES comes first, the peptide text is derived from it. Where no end group is shown, it is not given here.

Columns and labels:
indicated HLA alleles = test: Stability of mutant EGFR neopeptides with the HLA alleles; type: binding, human; conditions: EGFR_T790M
Experimental: Multiple peptides containing neoepitopes in the table below were either expressed or loaded onto antigen presenting cells. Mass spectrometry was then performed and the affinity of the neoepitopes for indicated HLA alleles were determined, and the stability of the neoepitopes with the HLA alleles were determined.

[1] = for Solubility in 0.5 mM SS in D5W w/ 4% DMSO: 0.5 mM sodium succinate in D5W; for Solubility in 0.5 mM SS in D5W w/ 4% DMSO / Solubility in […] SS in D5W w/ 4% DMSO / Solubility in […] SS in D5W w/o DMSO: no polyICLC; for Solubility in […] SS in D5W w/ 4% DMSO: […] sodium succinate in D5W; for solubility: without DMSO; for Solubility in […] SS in D5W w/o DMSO / Solubility in Poly ICLC + […] SS in D5W w/o DMSO / Solubility in Poly ICLC + 5 mM SS in D5W w/o DMSO: no DMSO; for solubility in low SS: lower SS concentration ([…] SS/D5W); for solubility in 5 mM SS: 5 mM SS (higher SS concentration) in D5W
Experimental: All buffers were prepared daily. […] Peptides were weighed into 15 mL or 50 mL conical tubes using a Mettler Toledo XP105 Delta Mass analytical balance and the actual gross weight was recorded and used to determine how much DMSO to obtain 50 mg/mL. The calculation is shown below:
DMSO (μL)=(Actual gross weight (mg)*264 μl)/(Target gross weight (mg)) Equation 4.
The stock was then diluted to 2 mg/mLL (1 part DMSO stock, 24 parts buffer) in the appropriate formulation buffer.
Peptides weights and percent content were calculated as described above and the appropriate buffer was added directly to the peptides. The target gross weight calculated using Eq. 3 and the volume of buffer used to obtain 2 mg/mL peptide was calculated using Equation 5.
Buffer (ml)=(Actual gross weight (mg)*6.6 mL)/(Target gross weight (mg)) Equation 5.
Peptides were further diluted 1:4 with buffer to obtain 0.4 mg/mL or, only when indicated, was buffer added directly to the dry peptide to obtain 0.4 mg/mL. In the latter case, Equation 6 to determine the appropriate volume to add.
Buffer (ml)=(Actual gross weight (mg)*33 mL)/(Target gross weight (mg)) Equation 6.
The peptides were dissolved by inverting the conical tubes and not by sonicating or vortexing them.
To pool 5 peptides, equal volume from each 2 mg/mL stock was combined to obtain 0.4 mg/mL of each peptide. In the case of pools with less than 5 peptides, equal volumes of the peptides were combined then the solution was diluted with the appropriate buffer to obtain 0.4 mg/mL of each peptide. The pools were inverted 3-5 times to mix. The formulated peptides were transferred to glass vials to visualize solubility. Photographs were taken every two hours to note any changes in appearance.
Pools were combined at a 3:1 ratio of peptide to polyICLC using 150 μL polyICLC with 450 μL peptide pool in a 2 mL glass vial. The solution was inverted 3-5 times to mix and photographs were taken every two hours for 6 hours to note any changes in appearance. All pH measurements were made using a Mettler Toledo inLab Micro pH meter, which was calibrated every day before use. 100 μL of the sample being analyzed was removed and added to a microcentrifuge tube to measure the pH. The sample was then discarded. Samples by UPLC-MS (Waters Acquity H-Class with an Acquity QDa mass spectrometer). A 2 μL injection of each sample was analyzed in duplicate using an 8 minute gradient from 10:90 solvent A:B to 50:50 solvent A:B (A:0.1% TFA/water, B: 0.1% TFA:acetonitrile).

[2] = 0.4 mg/mL in […] SS, after 6 hours

## CC[C@H](C)[C@H](N)C(=O)N[C@@H](CCSC)C(=O)N[C@@H](CCC(N)=O)C(=O)N[C@@H](CC(C)C)C(=O)N[C@@H](CCSC)C(=O)N1CCC[C@H]1C(=O)N[C@@H](Cc1ccccc1)C(=O)NCC(=O)N[C@@H](CS)C(=O)N[C@@H](CC(C)C)C(=O)O
Indicated HLA alleles; HLA A02.01
  Stability (1/2 hr): 0.5156 h
Indicated HLA alleles; HLA A24.02
  Stability (1/2 hr): 0 h
Indicated HLA alleles; HLA B08.01
  Stability (1/2 hr): 0 h

## CSCC[C@H](NC(=O)[C@H](CC(C)C)NC(=O)[C@H](CCC(N)=O)NC(=O)[C@@H](N)CCSC)C(=O)N1CCC[C@H]1C(=O)N[C@@H](Cc1ccccc1)C(=O)NCC(=O)N[C@@H](CS)C(=O)N[C@@H](CC(C)C)C(=O)O
Indicated HLA alleles; HLA A02.01
  Stability (1/2 hr): 0.3683 h
Indicated HLA alleles; HLA B07.02
  Stability (1/2 hr): 0 h
Indicated HLA alleles; HLA B08.01
  Stability (1/2 hr): 0 h

## CC[C@H](C)[C@H](NC(=O)[C@H](CC(C)C)NC(=O)[C@@H](N)CCC(N)=O)C(=O)N[C@@H](CCSC)C(=O)N[C@@H](CCC(N)=O)C(=O)N[C@@H](CC(C)C)C(=O)N[C@@H](CCSC)C(=O)N1CCC[C@H]1C(=O)N[C@@H](Cc1ccccc1)C(=O)O
Indicated HLA alleles; HLA A02.01
  Stability (1/2 hr): 0.3407 h
Indicated HLA alleles; HLA A24.02
  Stability (1/2 hr): 0.3687 h
Indicated HLA alleles; HLA B08.01
  Stability (1/2 hr): 0 h

## CC[C@H](C)[C@H](NC(=O)[C@H](CC(C)C)NC(=O)[C@H](CCC(N)=O)NC(=O)[C@@H](N)C(C)C)C(=O)N[C@@H](CCSC)C(=O)N[C@@H](CCC(N)=O)C(=O)N[C@@H](CC(C)C)C(=O)N[C@@H](CCSC)C(=O)N1CCC[C@H]1C(=O)N[C@@H](Cc1ccccc1)C(=O)O
Indicated HLA alleles; HLA A02.01
  Stability (1/2 hr): 0 h
Indicated HLA alleles; HLA A24.02
  Stability (1/2 hr): 0 h
Indicated HLA alleles; HLA B08.01
  Stability (1/2 hr): 0 h

## CSCC[C@H](N)C(=O)N[C@@H](Cc1ccccc1)C(=O)N[C@@H](C)C(=O)N[C@H](C(=O)N[C@@H](CC(C)C)C(=O)N[C@@H](CCC(N)=O)C(=O)N[C@@H](CCCNC(=N)N)C(=O)N[C@@H](CO)C(=O)N[C@@H](CO)C(=O)N[C@@H](CC(C)C)C(=O)N[C@@H](Cc1c[nH]c2ccccc12)C(=O)N[C@@H](CS)C(=O)N[C@@H](CC(C)C)C(=O)N[C@@H](CS)C(=O)N[C@@H](CO)C(=O)N[C@@H](CC(N)=O)C(=O)N[C@@H](Cc1c[nH]cn1)C(=O)O)[C@@H](C)O [Peptide 12b] (H-MFATLQRSSLWCLCSNH-OH)
[1]; 4% DMSO
  Solubility in 0.5 mM SS in D5W w/ 4% DMSO: Yes
  Solubility in […] SS in D5W w/ 4% DMSO: Yes
[1]; with polyICLC, 4% DMSO
  Solubility in Poly ICLC + […] SS in D5W w/ 4% DMSO: No

## CC[C@H](C)[C@H](NC(=O)[C@H](CCCCN)NC(=O)[C@H](CO)NC(=O)[C@@H](N)CCC(=O)O)C(=O)N[C@@H](CCSC)C(=O)N[C@@H](Cc1ccccc1)C(=O)N[C@@H](C)C(=O)N[C@H](C(=O)N[C@@H](CC(C)C)C(=O)N[C@@H](CCC(N)=O)C(=O)N[C@@H](CCCNC(=N)N)C(=O)N[C@@H](CO)C(=O)N[C@@H](CO)C(=O)N[C@@H](CC(C)C)C(=O)O)[C@@H](C)O [Peptide L11i]
[1]; 0.4 mg/mL, D5W with all SS concentrations tested
  solubility: soluble
[1]; 2 mg/mL in the higher SS concentration, D5W
  solubility: Some precipitation
[1]
  Solubility in […] SS in D5W w/o DMSO: Yes
  solubility in low SS: soluble
[1]; with polyICLC
  Solubility in Poly ICLC + […] SS in D5W w/o DMSO: Yes

## CSCC[C@H](N)C(=O)N[C@@H](Cc1ccccc1)C(=O)N[C@@H](C)C(=O)N[C@H](C(=O)N[C@@H](CC(C)C)C(=O)N[C@@H](CCC(N)=O)C(=O)N[C@@H](CCCNC(=N)N)C(=O)N[C@@H](CO)C(=O)N[C@@H](CO)C(=O)N[C@@H](CC(C)C)C(=O)N[C@@H](Cc1c[nH]c2ccccc12)C(=O)N[C@@H](CS)C(=O)N[C@@H](CC(C)C)C(=O)N[C@@H](CS)C(=O)O)[C@@H](C)O [Peptide L12c]
[1]; 4% DMSO
  Solubility in […] SS in D5W w/ 4% DMSO: No

## CC(C)C[C@H](NC(=O)[C@H](CS)NC(=O)[C@H](Cc1c[nH]c2ccccc12)NC(=O)[C@H](CC(C)C)NC(=O)[C@H](CO)NC(=O)[C@H](CO)NC(=O)[C@H](CCCNC(=N)N)NC(=O)[C@H](CCC(N)=O)NC(=O)[C@H](CC(C)C)NC(=O)[C@@H](N)[C@@H](C)O)C(=O)N[C@@H](CS)C(=O)N[C@@H](CO)C(=O)N[C@@H](CC(N)=O)C(=O)N[C@@H](Cc1c[nH]cn1)C(=O)O [Peptide L12d] (H-TLQRSSLWCLCSNH-OH)
[1]; 5 mM SS, after 6 hours
  solubility: soluble
[1]
  Solubility in […] SS in D5W w/o DMSO: Yes
[1]; 4% DMSO
  Solubility in […] SS in D5W w/ 4% DMSO: Yes
[1]; with polyICLC, 4% DMSO
  Solubility in Poly ICLC + 5 mM SS in D5W w/ 4% DMSO: Yes
  Solubility in Poly ICLC + […] SS in D5W w/ 4% DMSO: Yes

## CC[C@H](C)[C@H](NC(=O)[C@H](CCCCN)NC(=O)[C@H](CO)NC(=O)[C@H](CCC(=O)O)NC(=O)[C@H](C)NC(=O)[C@H](CCCCN)NC(=O)[C@H](CC(C)C)NC(=O)[C@H](Cc1ccccc1)NC(=O)[C@H](CCSC)NC(=O)[C@H](Cc1ccc(O)cc1)NC(=O)CNC(=O)[C@H](CC(=O)O)NC(=O)[C@H](CCCNC(=N)N)NC(=O)[C@H](CCCCN)NC(=O)[C@@H]1CCCN1C(=O)[C@@H](N)CCCCN)C(=O)N[C@@H](CCSC)C(=O)N[C@@H](Cc1ccccc1)C(=O)N[C@@H](C)C(=O)N[C@H](C(=O)N[C@@H](CC(C)C)C(=O)N[C@@H](CCC(N)=O)C(=O)N[C@@H](CCCNC(=N)N)C(=O)N[C@@H](CO)C(=O)N[C@@H](CO)C(=O)N[C@@H](CC(C)C)C(=O)N[C@@H](Cc1c[nH]c2ccccc12)C(=O)N[C@@H](CS)C(=O)N[C@@H](CC(C)C)C(=O)N[C@@H](CS)C(=O)N[C@@H](CO)C(=O)N[C@@H](CC(N)=O)C(=O)N[C@@H](Cc1c[nH]cn1)C(=O)O)[C@@H](C)O [Peptide L15] (H-KPKRDGYMFLKAESKIMFATLQRSSLWCLCSNH-OH; N-terminus and C-terminus assumed)
[1]; [2]
  solubility: soluble
[1]
  solubility in 5 mM SS: not soluble
  Solubility in […] SS in D5W w/o DMSO: Yes
  solubility in low SS: soluble
[1]; with polyICLC
  Solubility in Poly ICLC + […] SS in D5W w/o DMSO: Yes

## DGYMFLKAESKIMFAT [Peptide L11e]
[1]; 4% DMSO
  Solubility in […] SS in D5W w/ 4% DMSO: No

## ESKIMFATLQRSSLWC [Peptide L11g]
[1]; 4% DMSO
  Solubility in […] SS in D5W w/ 4% DMSO: Yes
[1]; with polyICLC, 4% DMSO
  Solubility in Poly ICLC + […] SS in D5W w/ 4% DMSO: No

## FLKAESKIMFATLQRS [Peptide L11f]
[1]; [2]
  solubility: soluble
[1]
  solubility in 5 mM SS: not soluble
  Solubility in […] SS in D5W w/o DMSO: Yes
  solubility in low SS: soluble
[1]; 4% DMSO
  Solubility in […] SS in D5W w/ 4% DMSO: Yes
[1]; with polyICLC
  Solubility in Poly ICLC + […] SS in D5W w/o DMSO: Yes

## FLKAESKIMFATLQRSSLWCL [Peptide 11]
[1]; with polyICLC, 4% DMSO
  Solubility in Poly ICLC + […] SS in D5W w/ 4% DMSO: No

## GPPARVPAVPFDLHFCRSSIMKPKRD [Peptide 8]
[1]; 4% DMSO
  Solubility in 0.5 mM SS in D5W w/ 4% DMSO: Yes
  Solubility in […] SS in D5W w/ 4% DMSO: Yes
[1]
  Solubility in […] SS in D5W w/o DMSO: Yes
[1]; with polyICLC, 0.5 mM SS in D5W, 4% DMSO
  Solubility in Poly ICLC + 0.5 mM SS in D5W w/ 4% DMSO: Yes
[1]; with polyICLC
  Solubility in Poly ICLC + 5 mM SS in D5W w/o DMSO: Yes
  Solubility in Poly ICLC + […] SS in D5W w/o DMSO: Yes
[1]; with polyICLC, 4% DMSO
  Solubility in Poly ICLC + […] SS in D5W w/ 4% DMSO: Yes

## GPPARVPAVPFDLHFCRSSIMKPKRD [Peptide L8]
[1]; [2]
  solubility: soluble
[1]
  solubility in 5 mM SS: soluble
[1]; 5 mM SS, after 6 hours
  solubility: soluble

## KAESKIMFATLQRSSLWCL [Peptide 11d]
[1]; 4% DMSO
  Solubility in 0.5 mM SS in D5W w/ 4% DMSO: Yes
  Solubility in […] SS in D5W w/ 4% DMSO: Yes
[1]
  Solubility in […] SS in D5W w/o DMSO: Yes
[1]; with polyICLC
  Solubility in Poly ICLC + […] SS in D5W w/o DMSO: Yes

## KAESKIMFATLQRSSLWCL [Peptide L11d]
[1]; [2]
  solubility: soluble

## KPKRDGYMFLKAESKI [Peptide L10c]
[1]; [2]
  solubility: soluble
[1]
  solubility in 5 mM SS: soluble
  Solubility in […] SS in D5W w/o DMSO: Yes
[1]; 5 mM SS, after 6 hours
  solubility: soluble
[1]; 4% DMSO
  Solubility in […] SS in D5W w/ 4% DMSO: Yes
[1]; with polyICLC, 4% DMSO
  Solubility in Poly ICLC + 5 mM SS in D5W w/ 4% DMSO: Yes
[1]; with polyICLC
  Solubility in Poly ICLC + 5 mM SS in D5W w/o DMSO: Yes
  Solubility in Poly ICLC + […] SS in D5W w/o DMSO: Yes

## KPKRDGYMFLKAESKIMFAT [Peptide 10b]
[1]; 4% DMSO
  Solubility in 0.5 mM SS in D5W w/ 4% DMSO: Yes
  Solubility in […] SS in D5W w/ 4% DMSO: Yes
[1]; with polyICLC, 4% DMSO
  Solubility in Poly ICLC + […] SS in D5W w/ 4% DMSO: No

## KPKRDGYMFLKAESKIMFATLQR [Peptide 10]
[1]; 4% DMSO
  Solubility in […] SS in D5W w/ 4% DMSO: Yes
[1]; with polyICLC, 4% DMSO
  Solubility in Poly ICLC + 5 mM SS in D5W w/ 4% DMSO: No
  Solubility in Poly ICLC + […] SS in D5W w/ 4% DMSO: No

## LHFCRSSIMKPKRDGYMFLKAESKI [Peptide 9]
[1]; 4% DMSO
  Solubility in 0.5 mM SS in D5W w/ 4% DMSO: Yes
  Solubility in […] SS in D5W w/ 4% DMSO: Yes
[1]
  Solubility in […] SS in D5W w/o DMSO: Yes
[1]; with polyICLC
  Solubility in Poly ICLC + 5 mM SS in D5W w/o DMSO: Yes
[1]; with polyICLC, 4% DMSO
  Solubility in Poly ICLC + […] SS in D5W w/ 4% DMSO: Yes

## LHFCRSSIMKPKRDGYMFLKAESKI [Peptide L9]
[1]; [2]
  solubility: soluble
[1]
  solubility in 5 mM SS: soluble
[1]; 5 mM SS, after 6 hours
  solubility: soluble

## YMFLKAESKIMFATLQRSS [Peptide 11c]
[1]; 4% DMSO
  Solubility in 0.5 mM SS in D5W w/ 4% DMSO: Yes
  Solubility in […] SS in D5W w/ 4% DMSO: Yes
[1]; with polyICLC, 4% DMSO
  Solubility in Poly ICLC + […] SS in D5W w/ 4% DMSO: No
